Tests used:
Assay type in all cases: cell-based, human
[1] = tested on: autologous CD4+ T cells from patients with RA; assay: Co-culture of peptide-pulsed VD3-DCs with autologous CFSE-stained CD4+ T cells; details: VD3-DCs pulsed with peptide in comparison to mDCs; 5 days co-culture; FIG. 4B
From the text: FIGS. 4A-4C. Modulation of antigen-specific CD4+ T cell responses by tDCs generated using different protocols and pulsed with autoantigenic peptides. Two different protocols were used for tDCs generation from peripheral blood monocytes of RA patients: 1) DCs treated with Bay 11-082 (Bay-DCs); and 2) DCs treated with vitamin D3, dexamethasone and LPS (VD3-DCs); mDCs were used as control. DCs were pulsed with previously selected peptides or mixtures of them, using a peptide derived from Aggrecan, as a positive control. Then, DCs were co-cultured with autologous CFSE-stained CD4+ T cells and, after 5 days, 8 the percentage of proliferating CD4+ T cells (CFSElo) expressing IFN-γ (FIG. 4A), IL-17 (FIG. 4B) or TNF-α (FIG. 4C), was evaluated by flow cytometry. The percentage of decrease in the expression of proinflammatory cytokines by CD4+ T cells co-cultured with tDCs in comparison to mDCs was calculated. […]
(§1) tDCs were then co-cultured with CFSE-stained CD4+ T cells and, after 5 days of culture, the percentage of proliferating CD4+T lymphocytes, expressing IFN-γ, IL-17 and TNF-α, was evaluated by flow cytometry. In each case, the percentage of decrease in the expression of proinflammatory cytokines by CD4+ T cells co-cultured with tDCs in comparison to mDCs was calculated.

[2] = tested on: autologous CD4+ T cells from patients with RA; assay: Co-culture of peptide-pulsed Bay-DCs with autologous CFSE-stained CD4+ T cells; details: Bay-DCs pulsed with peptide in comparison to mDCs, 5 days co-culture; for expression of IFN-γ by CD4+ T lymphocytes: FIG. 4A; for decrease of IL-17 expression by CD4+ T lymphocytes: FIG. 4B
From the text: FIGS. 4A-4C. Modulation of antigen-specific CD4+ T cell responses by tDCs generated using different protocols and pulsed with autoantigenic peptides. Two different protocols were used for tDCs generation from peripheral blood monocytes of RA patients: 1) DCs treated with Bay 11-082 (Bay-DCs); and 2) DCs treated with vitamin D3, dexamethasone and LPS (VD3-DCs); mDCs were used as control. DCs were pulsed with previously selected peptides or mixtures of them, using a peptide derived from Aggrecan, as a positive control. Then, DCs were co-cultured with autologous CFSE-stained CD4+ T cells and, after 5 days, 8 the percentage of proliferating CD4+ T cells (CFSElo) expressing IFN-γ (FIG. 4A), IL-17 (FIG. 4B) or TNF-α (FIG. 4C), was evaluated by flow cytometry. The percentage of decrease in the expression of proinflammatory cytokines by CD4+ T cells co-cultured with tDCs in comparison to mDCs was calculated.
In order to evaluate the potential of autoantigenic peptides to load tolerogenic DCs generated from different protocols to modulate antigen-specific CD4+ T cell responses, co-culture assays of tDCs pulsed with autoantigenic peptides and autologous CD4+ T cells from patients with RA were performed. DCs were generated from monocytes according to the protocol described of example 2. To differentiate other tolerogenic dendritic cells types, DCs generated from monocytes were modulated with Bay-11-7982 an irreversible inhibitor of NF-κB (Bay-DCs), or modulated with Vitamin D3, dexamethasone and LPS (VD3-DCs). As control, mature DCs (mDCs) treated only with MPLA were used.
After this, the cells were pulsed with the autoantigenic peptides in the same way as an example 2, independently with the following autoantigenic peptides; 3 peptides derived from vimentin, such as Vimentin-1, Vimentin-1 citrullinated, Vimentin-2 citrullinated, or autoantigenic peptides derived from Fibrinogen, Calreticulin and Fibronectin, Aggrecan, as a positive control was used of the activation of the autologous CD4+ T cells, and un-pulsed DCs were used as a basal activation control. Besides mixtures were considered: Mix 1: Vimentin-1 and Vimentin-1 citrullinated; Mix 2: Vimentin-2 citrullinated and Calreticulin; Mix 3: Mix 1+Mix 2.
as §1

[3] = tested on: autologous CD4+ T cells from patients with RA; assay: Co-culture of peptide-pulsed MPLA-tDCs with autologous CFSE-stained CD4+ T cells; details: MPLA-tDCs pulsed with peptide in comparison to mDCs, 5 days co-culture; for expression of IFN-γ by proliferating CD4+ T lymphocytes: FIG. 3A
From the text: FIGS. 3A-3C Modulation of antigen-specific CD4+ T cell responses by tolerogenic dendritic cells (tDCs) treated with dexamethasone and monophosphoryl lipid A (MPLA-tDCs) and pulsed with autoantigenic peptides. MPLA-tDCs and MPLA-matured DCs (mDCs), as activation control, were generated from peripheral blood monocytes of RA patients, and pulsed with previously selected peptides or mixtures of them, using a peptide derived from Aggrecan, previously described in literature, as a control peptide. Subsequently, DCs were co-cultured with autologous CFSE-stained CD4+ T cells and, after 5 days, the percentage of proliferating CD4+ T cells (CFSElo) expressing IFN-γ (FIG. 3A), L-17 (FIG. 3B) or TNF-α (FIG. 3C) was evaluated by flow cytometry. […] To compare the expression of cytokines induced by each type of DCs, a T test was performed (*p<0.05).
In order to evaluate the ability of tDCs to modulate antigen-specific CD4+ T cell responses, co-culture assays of tDCs pulsed with autoantigenic peptides and autologous CD4+ T cells from patients with RA were performed. DCs were generated from monocytes isolated from peripheral blood of patients with RA, cultured at a concentration of 2-3×10^6 cells/ml in serum-free AIM-V medium in the presence of 500 U/mL of recombinant human interleukin-4 (rhIL-4) and recombinant human […] colony stimulating factor (rhGM-CSF), for 5 days, at 37° C. and 5% CO2. […]
The effect of autoantigenic peptides to modulate effector CD4+ T cell responses of patients with RA, when are presented by tDCs generated using the protocol described in this application. […] DCs were then co-cultured with CFSE-stained CD4+ T cells and, after 5 days of culture, the percentage of proliferating CD4+T lymphocytes, expressing IFN-γ, IL-17 and TNF-α, was evaluated by flow cytometry. In each case, the percentage of decrease in the expression of proinflammatory cytokines by CD4+ T cells co-cultured with tDCs in comparison to mDCs was calculated.

| Substance | decrease of IL-17 expression by CD4+ T lymphocytes [1] | expression of IFN-γ by CD4+ T lymphocytes [2] | decrease of IL-17 expression by CD4+ T lymphocytes [2] | expression of IFN-γ by proliferating CD4+ T lymphocytes [3] | expression of TNF-α by proliferating CD4+ T lymphocytes ([3]; FIG. 3C) |
| --- | --- | --- | --- | --- | --- |
| Calreticulin | high percentage of decrease | significantly reduced | high percentage of decrease | significantly reduced | – |
| Fibrinogen | high percentage of decrease | – | high percentage of decrease | – | – |
| Fibronectin | – | significantly reduced | – | significantly reduced | significantly decrease |

Reference: patent US20230086469A1, “AUTOANTIGENIC PEPTIDES (CALVICIFIV), PRESENTED BY TOLEROGENIC DENTRITIC CELLS, USEFUL FOR THE PERSONALIZED TREATMENT OF RHEUMATOID ARTHRITIS” (UNIVERSIDAD DE CHILE, priority 2019, published 2023)
